`CCC1=NC(NC(=O)Nc2cccc(C)c2)C(=O)N(CC(=O)N2CC3CCC(CC3)C2)c2ccccc21` (racemic) returned a melting point of 115 to 120 °C.
In the case of `CCCCC1=NC(NC(=O)Nc2cccc(C)c2)C(=O)N(CC(=O)N2CC3CCC(CC3)C2)c2ccccc21` (racemic), the melting point lay in the range of 121 to 123 °C.
In the case of `Cc1cccc(NC(=O)NC2N=C(CC3CCCCC3)c3ccccc3N(CC(=O)N3CC4CCC(CC4)C3)C2=O)c1` (racemic), the melting point lay in the range of 164 to 166 °C.
Regarding `O=C(Nc1cccc(-c2nnn[nH]2)c1)NC1N=C(CC2CCCCC2)c2ccccc2N(CC(=O)N2CC3CCC(CC3)C2)C1=O` (racemic), the melting point was 218 to 222 °C (dec.).
In the case of `Cc1cccc2c1N(CC(=O)c1ccccc1O)C(=O)C(NC(=O)Nc1cccc(-c3nnnn3C(c3ccccc3)(c3ccccc3)c3ccccc3)c1)N=C2c1ccccc1F` (racemic) it was 132.1 to 146 °C; in that of `Cc1cccc2c1N(CC(=O)c1ccccc1OCC(=O)O)C(=O)C(NC(=O)Nc1cccc(-c3nnn[nH]3)c1)N=C2c1ccccc1F` (racemic), 109.6 to 113 °C; in that of `Cc1cccc2c1N(CC(=O)N1CC3CCC(CC3)C1)C(=O)C(NC(=O)Nc1cccc(C=O)c1)N=C2c1ccccc1F` (racemic), 236.8 to 242.1 °C.
The compound `Cc1cccc2c1N(CC(=O)N1CC3CCC(CC3)C1)C(=O)C(NC(=O)Nc1cccc(C=NO)c1)N=C2c1ccccc1F` (racemic) showed a melting point of 196 to 199 °C.
In the case of `CC(=O)N(C(C)=O)c1ccccc1C(=O)CN1C(=O)C(NC(=O)Nc2cccc(-c3nnn[nH]3)c2)N=C(c2ccccc2F)c2cccc(C)c21` (racemic) it was 192 to 216.6 °C (dec.); in that of `Cc1cccc2c1N(CC(=O)N1CC3CCC(CC3)C1)CC(NC(=O)Nc1cccc(Br)c1)N=C2c1ccccc1F` (racemic), over 250 °C.
Take `CC(=NO)c1cccc(NC(=O)NC2N=C(c3ccccc3F)c3cccc(C)c3N(CC(=O)N3CC4CCC(CC4)C3)C2=O)c1` (racemic): the melting point was 199.1 to 207.8 °C.
In the case of `Cc1cccc(NC(=O)NC2N=C(C3CCCCC3)c3cccc(C)c3N(C)C2=O)c1` (racemic) it was 196.4 to 197.5 °C.
In the case of `Cc1cccc(NC(=O)NC2N=C(c3ccccc3F)c3cccc(C)c3N(CC(=O)c3ccccc3C)C2=O)c1` (racemic) it was 190.2 to 196.2 °C; in that of `Cc1ccccc1C(=O)CN1C(=O)C(NC(=O)Nc2cccc(-c3nnn[nH]3)c2)N=C(c2ccccc2F)c2cccc(C)c21` (racemic), 215.8 to 220.3 °C.
`Cc1ccccc1C(=O)CN1C(=O)C(NC(=O)Nc2cccc(C(=O)O)c2)N=C(c2ccccc2F)c2cccc(C)c21` (racemic): the melting point fell in the range of 168.1 to 176.3 °C.
Compound `CC(C)C1=NC(NC(=O)Nc2ccccc2)C(=O)N(CC(=O)N2CC3CCC(CC3)C2)c2ccccc21` (racemic) had a melting point of 132 to 135 °C.
`CC(C)C1=NC(NC(=O)NC2CCCCC2)C(=O)N(CC(=O)N2CC3CCC(CC3)C2)c2ccccc21` (racemic) showed a melting point of 138 to 140 °C.
In the case of `CC(C)c1cccc2c1N(CC(=O)N1CC3CCC(CC3)C1)C(=O)C(NC(=O)Nc1cccc(-c3nnn[nH]3)c1)N=C2c1ccccc1F` (racemic) it was 212.2 to 222.1 °C; in that of `Cc1cccc(NC(=O)NC2N=C(c3ccccc3F)c3cccc(C(C)C)c3N(CC(=O)N3CC4CCC(CC4)C3)C2=O)c1` (racemic), 183.3 to 186.8 °C; in that of `Cc1cccc2c1N(CC(=O)N1CC3CCC(CC3)C1)C(=O)C(NC(=O)Nc1cccc(O)c1)N=C2c1ccccc1F` (racemic), 192.8 to 203.9 °C.
Consider `Cc1cccc2c1N(CC(=O)N1CC3CCC(CC3)C1)C(=O)C(NC(=O)Nc1cccc(-c3nnn[nH]3)c1)N=C2C1CCCCC1` (racemic), for which the melting point fell in the range of 186.2 to 197.6 °C.
As to `Cc1cccc2c1N(Cc1ccccn1)C(=O)C(NC(=O)Nc1cccc(-c3nnn[nH]3)c1)N=C2c1ccccc1F` (racemic), the melting point lay in the range of 173.9 to 182 °C.
In the case of `O=C(Nc1cccc(-c2nnn[nH]2)c1)NC1N=C(c2ccccc2F)c2cccc(Cl)c2N(CC(=O)N2CC3CCC(CC3)C2)C1=O` (racemic), the melting point lay within 172 to 180.5 °C.
In the case of `Cc1cccc(NC(=O)NC2N=C(C(C)C)c3ccccc3N(CC(=O)N3CC4CCC(CC4)C3)C2=O)c1` (racemic) it was 123 to 126 °C; in that of `Cc1cccc2c1N(CC(=O)C(C)(C)C)C(=O)C(NC(=O)Nc1cccc(-c3nnn[nH]3)c1)N=C2c1ccccc1F` (racemic), 160.4 to 180.7 °C (dec.).
Regarding `CC1=NC(NC(=O)Nc2cccc(C)n2)C(=O)N(CC(=O)N2CC3CCC(CC3)C2)c2c(C)cccc21` (racemic), the melting point is 150.8 to 152.1 °C.
In the case of `CC1=NC(NC(=O)Nc2cc(C)ccn2)C(=O)N(CC(=O)N2CC3CCC(CC3)C2)c2c(C)cccc21` (racemic) it was 152 to 154.1 °C; in that of `CC1=NC(NC(=O)Nc2cccc(N(C)C)c2)C(=O)N(CC(=O)N2CC3CCC(CC3)C2)c2c(C)cccc21.Cl` (racemic), 190.9 to 193.1 °C.
In the case of `CC1=NC(NC(=O)Nc2cccc(C)c2)C(=O)N(CC(=O)N2CC3CCC(CC3)C2)c2c1cccc2N(C)C.Cl` (racemic) it was 216.5 to 218.7 °C; in that of `Cc1cccc2c1N(CC(=O)OC(C)(C)C)C(=O)C(NC(=O)Nc1cccc(-c3nnn[nH]3)c1)N=C2c1ccccc1F` (racemic), 151.4 to 174.2 °C (dec.).
In the case of `Cc1cccc2c1N(CC(=O)C13CC4CC(CC(C4)C1)C3)C(=O)C(NC(=O)Nc1cccc(-c3nnn[nH]3)c1)N=C2c1ccccc1F` (racemic) it was 195 to 218.4 °C (dec.); in that of `CC(=O)CN1C(=O)C(NC(=O)Nc2cccc(-c3nnn[nH]3)c2)N=C(c2ccccc2F)c2cccc(C)c21` (racemic), 173.5 to 189.8 °C.
`Cc1cccc2c1N(CC(=O)c1cccc([N+](=O)[O-])c1)C(=O)C(NC(=O)Nc1cccc(-c3nnn[nH]3)c1)N=C2c1ccccc1F` (racemic) showed a melting point of 194.4 to 198.1 °C.
In the case of `Cc1cccc2c1N(CC(=O)c1ccccc1[N+](=O)[O-])C(=O)C(NC(=O)Nc1cccc(-c3nnn[nH]3)c1)N=C2c1ccccc1F` (racemic) it was 192.2 to 197.1 °C; in that of `Cc1cccc(NC(=O)NC2N=C(C(C)C)c3cccc(C)c3N(CC(=O)N3CC4CCC(CC4)C3)C2=O)c1` (racemic), 189.9 to 192.8 °C; in that of `CC1=NC(NC(=O)Nc2cccc(Br)c2)C(=O)N(CC(=O)N2CC3CCC(CC3)C2)c2c(C)cccc21` (racemic), 168.1 to 171.1 °C.
In the case of `CC1=NC(NC(=O)Nc2cccc(Cl)c2)C(=O)N(CC(=O)N2CC3CCC(CC3)C2)c2c(C)cccc21` (racemic) it was 181.2 to 185.1 °C; in that of `CSc1cccc(NC(=O)NC2N=C(C)c3cccc(C)c3N(CC(=O)N3CC4CCC(CC4)C3)C2=O)c1` (racemic), 237.2 to 238.5 °C.
In the case of `COc1cccc(NC(=O)NC2N=C(C)c3cccc(C)c3N(CC(=O)N3CC4CCC(CC4)C3)C2=O)c1` (racemic) it was 169.6 to 170.7 °C; in that of `CC1=NC(NC(=O)Nc2cccc(C)c2)C(=O)N(CC(=O)N2CC3CCC(CC3)C2)c2c(C)cccc21` (racemic), 176.9 to 179.1 °C; in that of `Cc1cccc(NC(=O)NC2N=C(CN3CC4CCC(CC4)C3)c3cccc(C)c3N(C)C2=O)c1` (racemic), 145.6 to 149.2 °C.
The compound `COCC1=NC(NC(=O)Nc2cccc(C)c2)C(=O)N(CC(=O)N2CC3CCC(CC3)C2)c2c(C)cccc21` (racemic) had a melting point of 178.1 to 182.1 °C.
In the case of `Cc1cccc(NC(=O)NC2N=C(C3CC3)c3cccc(C)c3N(CC(=O)N3CC4CCC(CC4)C3)C2=O)c1` (racemic) it was 172 to 174.4 °C.
In turn, `CCC1=NC(NC(=O)Nc2cccc(C)c2)C(=O)N(CC(=O)N2CC3CCC(CC3)C2)c2c(C)cccc21` (racemic) came in with a melting point of 130.1 to 133 °C.
The compound `Cc1cccc(NC(=O)NC2N=C(C3CC3)c3cccc(C)c3N(CC(=O)N3CCCCCCC3)C2=O)c1` (racemic) displayed a melting point of 177.7 to 179.2 °C.
Take `CC1=NC(NC(=O)Nc2cccc(C)c2)C(=O)N(CC(=O)N2CC3CCC(CC3)C2)c2ccccc21` (racemic): the melting point is 150 to 153 °C.
For the compound `CSc1cccc(NC(=O)NC2N=C(C(C)C)c3ccccc3N(CC(=O)N3CC4CCC(CC4)C3)C2=O)c1` (racemic), the melting point lay within 134 to 135 °C.
In the case of `CC(=O)OCC1=NC(NC(=O)Nc2cccc(C)c2)C(=O)N(CC(=O)N2CC3CCC(CC3)C2)c2c(C)cccc21` (racemic) it was 133 to 134.5 °C.
As for `CC1=NC(NC(=O)Nc2cccc(C)c2)C(=O)N(Cc2ncccc2C)c2ccccc21` (racemic) [8(1), N-[(3RS)-2,3-dihydro-5-methyl-1-(3-methylpyridin-2-yl)methyl-2-oxo-1H-1,4-benzodiazepin-3-yl]-N′-(3-methylphenyl)urea], the melting point lay within 225 to 229 °C.
In the case of `CC(=O)c1sccc1CN1C(=O)C(NC(=O)Nc2cccc(C)c2)N=C(C)c2ccccc21` (racemic) [8(3), N-[(3RS)-1-(2-acetylthiophen-3-yl)methyl-2,3-dihydro-5-methyl-2-oxo-1H-1,4-benzodiazepin-3-yl]-N′-(3-methylphenyl)urea] it was 215 to 219 °C.
In the case of `Cc1cccc(NC(=O)NC2N=C(CCC(C)C)c3ccccc3N(Cc3ncccc3C)C2=O)c1` (racemic) [9(1), N-[(3RS)-2,3-dihydro-5-(3-methylbutyl)-1-(3-methylpyridin-2-yl)methyl-2-oxo-1H-1,4-benzodiazepin-3-yl]-N′-(3-methylphenyl)urea], the melting point fell in the range of 151 to 154 °C.
For the compound `CC(=O)c1sccc1CN1C(=O)C(NC(=O)Nc2cccc(C)c2)N=C(CCC(C)C)c2ccccc21` (racemic) [9(2), N-[(3RS)-1-(2-acetylthiophen-3-yl)methyl-2,3-dihydro-5-(3-methylbutyl)-2-oxo-1H-1,4-benzodiazepin-3-yl]-N′-(3-methylphenyl)urea], the melting point was in the range of 190 to 195 °C.

The values are drawn from patent US20020183313A1, “1,4-benzodiazepinones and their uses as CCK antagonists” (Fujisawa Pharmaceutical Co., Ltd., priority 1996, published 2002).
